Measured values reported in US10544143B2, “4-azaindole compounds” (BRISTOL-MYERS SQUIBB COMPANY, priority 2017, dated 2020).
Where two headings read alike, the source gives them in different places.

Columns and labels:
human TLR7 = human TLR7 (Homo sapiens (Human), UniProt Q9NYK1); experiment: TLR7 inhibition reporter assay (HEK-Blue SEAP); type: cell-based
human TLR8 = human TLR8 (Homo sapiens (Human), UniProt Q9NR97); experiment: TLR8 inhibition reporter assay (HEK-Blue SEAP);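 note: SEAP driven by IFN-β minimal promoter carrying NF-κB and AP-1 sites, compounds dosed 0.05 nM to 50 µM for 22 h, inhibition scaled between agonist-plus-DMSO and reference-inhibitor wells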
Chain of human TLR8 (Q9NR97 27-1041): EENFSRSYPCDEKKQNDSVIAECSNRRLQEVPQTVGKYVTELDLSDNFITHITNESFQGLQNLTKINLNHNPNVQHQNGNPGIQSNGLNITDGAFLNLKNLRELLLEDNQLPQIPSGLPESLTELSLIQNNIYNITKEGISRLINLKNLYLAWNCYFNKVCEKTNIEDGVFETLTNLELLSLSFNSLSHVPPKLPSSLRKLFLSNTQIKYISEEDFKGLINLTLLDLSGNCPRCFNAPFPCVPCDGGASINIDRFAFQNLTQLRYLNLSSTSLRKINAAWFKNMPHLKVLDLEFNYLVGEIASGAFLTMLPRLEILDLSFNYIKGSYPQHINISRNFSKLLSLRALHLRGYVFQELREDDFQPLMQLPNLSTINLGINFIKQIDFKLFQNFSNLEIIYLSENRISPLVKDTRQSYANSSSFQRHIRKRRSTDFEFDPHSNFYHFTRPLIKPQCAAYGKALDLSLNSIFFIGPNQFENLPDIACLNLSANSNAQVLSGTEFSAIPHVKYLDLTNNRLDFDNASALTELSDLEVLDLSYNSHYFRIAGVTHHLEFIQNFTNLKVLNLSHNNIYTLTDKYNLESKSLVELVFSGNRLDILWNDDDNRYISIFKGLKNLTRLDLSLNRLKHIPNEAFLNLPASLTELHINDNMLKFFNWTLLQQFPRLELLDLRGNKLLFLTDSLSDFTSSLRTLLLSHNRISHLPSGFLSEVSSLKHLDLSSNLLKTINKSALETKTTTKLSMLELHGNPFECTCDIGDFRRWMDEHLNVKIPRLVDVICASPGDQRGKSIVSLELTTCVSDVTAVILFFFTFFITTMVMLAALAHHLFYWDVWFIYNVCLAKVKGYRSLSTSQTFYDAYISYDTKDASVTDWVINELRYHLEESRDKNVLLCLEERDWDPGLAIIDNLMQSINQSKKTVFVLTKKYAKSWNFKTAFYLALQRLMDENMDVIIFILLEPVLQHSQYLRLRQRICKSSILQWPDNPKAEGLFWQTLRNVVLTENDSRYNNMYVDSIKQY

human TLR9 = human TLR9 (Homo sapiens (Human), UniProt Q9NR96); experiment: TLR9 inhibition reporter assay (HEK-Blue SEAP);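 note: SEAP driven by an IFN-β minimal promoter with NF-κB and AP-1 sites, read after 22 h, compounds dosed 0.05 nM–50 µM, inhibition scaled between agonist plus DMSO and reference-inhibitor wells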
Chain of human TLR9 (Q9NR96 26-1032): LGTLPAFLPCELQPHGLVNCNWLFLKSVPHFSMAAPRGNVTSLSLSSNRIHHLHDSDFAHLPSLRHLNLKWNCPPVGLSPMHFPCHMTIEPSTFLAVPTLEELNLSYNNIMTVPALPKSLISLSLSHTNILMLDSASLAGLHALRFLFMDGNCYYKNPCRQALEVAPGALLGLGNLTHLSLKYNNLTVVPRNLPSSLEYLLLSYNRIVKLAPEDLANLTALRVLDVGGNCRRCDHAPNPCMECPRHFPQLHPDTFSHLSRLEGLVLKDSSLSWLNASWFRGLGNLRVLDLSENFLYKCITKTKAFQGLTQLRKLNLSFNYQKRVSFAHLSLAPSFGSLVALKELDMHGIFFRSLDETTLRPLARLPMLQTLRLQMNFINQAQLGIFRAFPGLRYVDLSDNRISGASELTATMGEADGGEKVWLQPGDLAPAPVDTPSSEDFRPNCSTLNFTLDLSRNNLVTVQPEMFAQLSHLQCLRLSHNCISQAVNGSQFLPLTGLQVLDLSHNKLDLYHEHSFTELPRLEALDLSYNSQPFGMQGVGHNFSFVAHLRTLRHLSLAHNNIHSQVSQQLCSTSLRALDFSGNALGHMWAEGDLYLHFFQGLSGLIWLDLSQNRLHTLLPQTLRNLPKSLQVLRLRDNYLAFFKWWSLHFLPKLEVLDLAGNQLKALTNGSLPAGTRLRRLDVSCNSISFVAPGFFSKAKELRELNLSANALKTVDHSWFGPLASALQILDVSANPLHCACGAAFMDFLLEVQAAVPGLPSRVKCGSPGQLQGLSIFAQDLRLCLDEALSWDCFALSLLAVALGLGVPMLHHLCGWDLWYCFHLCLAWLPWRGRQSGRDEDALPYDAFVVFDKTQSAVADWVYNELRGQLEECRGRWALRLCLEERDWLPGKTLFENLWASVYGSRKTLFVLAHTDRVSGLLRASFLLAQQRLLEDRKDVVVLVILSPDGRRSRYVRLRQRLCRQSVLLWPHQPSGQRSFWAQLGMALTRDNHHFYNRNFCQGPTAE

[1] = HEK-Blue human TLR7 cells, gardiquimod 7.5 μM
[2] = read-out: TLR8 IC50, HEK-Blue human TLR8 cells, R848 15.9 μM
[3] = read-out: TLR9 IC50, HEK-Blue human TLR9 cells, ODN2006 5 nM
[4] = HEK-Blue cells overexpressing human TLR7, gardiquimod 7.5 μM stimulation, SEAP reporter
[5] = read-out: TLR8 IC50, HEK-Blue cells overexpressing human TLR8, R848 15.9 μM stimulation, SEAP reporter
[6] = read-out: TLR9 IC50, HEK-Blue cells overexpressing human TLR9, ODN2006 5 nM stimulation, SEAP reporter
[7] = HEK-Blue cells overexpressing human TLR7, SEAP reporter, gardiquimod 7.5 μM
[8] = read-out: TLR8 IC50, HEK-Blue cells overexpressing human TLR8, SEAP reporter, R848 15.9 μM
[9] = read-out: TLR9 IC50, HEK-Blue cells overexpressing human TLR9, SEAP reporter, ODN2006 5 nM

Chain of human TLR7 (Q9NYK1 27-1049): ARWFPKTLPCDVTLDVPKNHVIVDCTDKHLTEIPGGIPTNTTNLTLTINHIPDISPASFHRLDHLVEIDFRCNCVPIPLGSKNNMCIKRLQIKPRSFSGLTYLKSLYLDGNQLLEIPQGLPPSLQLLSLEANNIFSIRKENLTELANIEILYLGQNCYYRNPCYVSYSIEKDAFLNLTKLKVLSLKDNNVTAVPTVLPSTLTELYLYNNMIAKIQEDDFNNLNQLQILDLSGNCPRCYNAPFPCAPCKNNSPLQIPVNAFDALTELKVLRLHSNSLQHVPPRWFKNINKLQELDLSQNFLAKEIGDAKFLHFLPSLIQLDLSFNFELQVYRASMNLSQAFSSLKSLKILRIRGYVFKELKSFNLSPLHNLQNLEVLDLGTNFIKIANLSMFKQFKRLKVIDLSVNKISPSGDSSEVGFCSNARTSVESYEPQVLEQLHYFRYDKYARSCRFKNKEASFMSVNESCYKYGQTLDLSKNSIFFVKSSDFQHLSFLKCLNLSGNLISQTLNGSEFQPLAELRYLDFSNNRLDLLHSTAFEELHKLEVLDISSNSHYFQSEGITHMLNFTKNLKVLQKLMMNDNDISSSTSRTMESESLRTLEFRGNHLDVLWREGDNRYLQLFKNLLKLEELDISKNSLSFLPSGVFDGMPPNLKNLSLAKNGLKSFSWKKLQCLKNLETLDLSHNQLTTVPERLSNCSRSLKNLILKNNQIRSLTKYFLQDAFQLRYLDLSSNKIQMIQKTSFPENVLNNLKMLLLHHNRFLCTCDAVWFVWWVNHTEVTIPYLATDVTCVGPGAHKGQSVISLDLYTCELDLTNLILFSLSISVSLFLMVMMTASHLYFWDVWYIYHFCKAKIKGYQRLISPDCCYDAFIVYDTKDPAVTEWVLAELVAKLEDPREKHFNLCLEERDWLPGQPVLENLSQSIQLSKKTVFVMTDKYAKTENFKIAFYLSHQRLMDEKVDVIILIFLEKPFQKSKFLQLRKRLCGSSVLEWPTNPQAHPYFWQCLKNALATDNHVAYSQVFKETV

Compound	IC50 (human TLR7; [1]) [nM]	IC50 (human TLR8; [2]) [nM]	IC50 (human TLR9; [3]) [nM]	IC50 (human TLR7; [4]) [nM]	IC50 (human TLR8; [5]) [nM]	IC50 (human TLR9; [6]) [nM]	IC50 (human TLR7; [7]) [nM]	IC50 (human TLR8; [8]) [nM]	IC50 (human TLR9; [9]) [nM]	other results
Cc1c(-c2[nH]c3ccc(N4C[C@H](C)N(C(=O)CN(C)C(C)(C)C)C[C@H]4C)nc3c2C(C)C)cn2ncnc2c1C [Example 939]	1.5	9.8	11900	–	–	–	–	–	–	–
Cc1ncc(CN(C)C2CCN(c3ccc4[nH]c(-c5cn6ncnc6c(C)c5C)c(C(C)C)c4n3)CC2)cn1 [Example 64]	–	–	–	3.8	1.6	5080	–	–	–	–
CC(C)c1c(-c2cn(CC#N)c3ncccc23)[nH]c2ccc(C3CCC(NC4CCCOC4)CC3)nc12 (stereo not drawn) [Example 274]	–	–	–	8.5	3.7	474	–	–	–	–
Cc1c(-c2[nH]c3ccc(N4CCN(C(=O)CCN(C)C)CC4)nc3c2C(C)C)cn2ncnc2c1C [Example 98]	–	–	–	0.74	0.72	5230	–	–	–	–
Cc1c(-c2[nH]c3ccc(N4CCN(C5COC5)C[C@@H]4C)nc3c2C(C)C)cn2ncnc2c1C [Example 813]	3.7	9.1	> 50000	–	–	–	–	–	–	–
Cc1c(-c2[nH]c3ccc(N4CCN(CCS(C)(=O)=O)C[C@@H]4C)nc3c2C(C)C)cn2ncnc2c1C [Example 817]	2.1	2.9	> 50000	–	–	–	–	–	–	–
Cc1c(-c2[nH]c3ccc(N4C[C@H](C)N(CCCS(C)(=O)=O)C[C@H]4C)nc3c2C(C)C)cn2ncnc2c1C [Example 845]	7.2	14	21300	–	–	–	–	–	–	–
Cc1c(-c2[nH]c3ccc(N4CCN(C(=O)C5CN(C)C5)CC4)nc3c2C(C)C)cn2ncnc2c1C [Example 828]	0.88	1.4	7160	–	–	–	–	–	–	–
Cc1c(-c2[nH]c3ccc(N4C[C@@H](C)N(C(=O)CCN5CC6(C5)CS(=O)(=O)C6)C[C@@H]4C)nc3c2C(C)C)cn2ncnc2c1C [Example 959]	1.4	0.29	7680	–	–	–	–	–	–	–
CCN(CC)CC(=O)N1CCN(c2ccc3[nH]c(-c4cn5ncnc5c(C)c4C)c(C(C)C)c3n2)C[C@@H]1C [Example 898]	2.1	3.2	17300	–	–	–	–	–	–	–
Cc1c(-c2[nH]c3ccc(C4CCC(NCc5cnco5)CC4)nc3c2C(C)C)cn2ncnc2c1C (stereo not drawn) [Example 413]	–	–	–	–	–	–	17	18	4740	–
Cc1c(-c2[nH]c3ccc(C4CCN(CC(C)C)CC4)nc3c2C(C)C)cn(C)c(=O)c1Cl [Example 569]	–	–	–	–	–	–	11	3	2180	–
Cc1c(-c2[nH]c3ccc(N4[C@H](C)CN(C(C)C)C[C@H]4C)nc3c2C(C)C)cn2ncnc2c1C [Example 865]	1.3	72	8890	–	–	–	–	–	–	–
CCN(CC1(S(C)(=O)=O)CC1)C1CCC(c2ccc3[nH]c(-c4cn5ncnc5c(C)c4C)c(C(C)C)c3n2)CC1 (stereo not drawn) [Example 480]	–	–	–	–	–	–	2	14	11700	–
CC(C)c1c(-c2cn(C)c3ncccc23)[nH]c2ccc(N3CC(N)C3)nc12 [Example 32]	–	–	–	7.3	6.9	1880	–	–	–	–
Cc1c(-c2[nH]c3ccc(N4CCN(C(=O)CNC(C)C)CC4)nc3c2C(C)C)cn2ncnc2c1C [Example 157]	–	–	–	2.2	1.2	8840	–	–	–	–
CC(C)c1c(-c2cc(CO)c3ncnn3c2)[nH]c2ccc(N3CCC(NC4COC4)CC3)nc12 [Example 81]	–	–	–	1.3	0.95	20100	–	–	–	–
Cc1c(-c2[nH]c3ccc(N4C[C@@H](C)N(C(=O)CCN(C)C)C[C@H]4C)nc3c2C(C)C)cn2ncnc2c1C [Example 797]	10	14	17600	–	–	–	–	–	–	–
Cc1c(-c2[nH]c3ccc(N4CCN(C(=O)CN5CC6(COC6)C5)C[C@H]4C)nc3c2C(C)C)cn2ncnc2c1C [Example 931]	2.5	3.9	14900	–	–	–	–	–	–	–
CNC1CCC(c2ccc3[nH]c(-c4cn(C)c5nccnc45)c(C(C)C)c3n2)CC1 (stereo not drawn) [Example 300]	–	–	–	48	286	9050	–	–	–	–
Cc1c(-c2[nH]c3ccc(C4CCC(NCCC(F)(F)F)CC4)nc3c2C(C)C)cn2ncnc2c1C (stereo not drawn) [Example 376]	–	–	–	0.71	1.2	1030	–	–	–	–
Cc1c(-c2[nH]c3ccc(C4CCC(N5CCC6(CCOC6)C5)CC4)nc3c2C(C)C)cn2ncnc2c1C (stereo not drawn) [Example 1059]	1.6	1.4	2250	–	–	–	–	–	–	–
Cc1c(-c2[nH]c3ccc(N4CCN(C(=O)CNC5CC5)CC4)nc3c2C(C)C)cn2ncnc2c1C [Example 968]	1.9	0.69	16400	–	–	–	–	–	–	–
Cc1cc(-c2[nH]c3ccc(C4CCNCC4)nc3c2C(C)C)cc(C)n1 [Example 512]	–	–	–	–	–	–	1.1	5.6	304	–
Cc1c(-c2[nH]c3ccc(C4CCC(N5CCC(F)C5)CC4)nc3c2C(C)C)cn2ncnc2c1C (stereo not drawn) [Example 1058]	1.9	3.5	5280	–	–	–	–	–	–	–
Cc1c(-c2[nH]c3ccc(N4C[C@@H](C)N(C(=O)CCN5CCC5)C[C@@H]4C)nc3c2C(C)C)cn2ncnc2c1C [Example 892]	0.62	1.4	3280	–	–	–	–	–	–	–

Further lines, with some results ahead:

IC50 (human TLR7; [1]) [nM]	IC50 (human TLR8; [2]) [nM]	IC50 (human TLR9; [3]) [nM]	IC50 (human TLR7; [4]) [nM]	IC50 (human TLR8; [5]) [nM]	IC50 (human TLR9; [6]) [nM]	IC50 (human TLR7; [7]) [nM]	IC50 (human TLR8; [8]) [nM]	IC50 (human TLR9; [9]) [nM]	Compound	other results
0.95	0.51	3070	–	–	–	–	–	–	Cc1c(-c2[nH]c3ccc(N4C[C@H]5C[C@@H]4CN5)nc3c2C(C)C)cn2ncnc2c1C [Example 981]	–
–	–	–	1.7	–	–	–	–	–	COc1cc(-c2[nH]c3ccc(C4CCC(N)C4)nc3c2C(C)C)cn2ncnc12 (racemic) [Example 9, 3-(3-isopropyl-2-(8-methoxy-[1,2,4]triazolo[1,5-a]pyridin-6-yl)-1H-pyrrolo[3,2-b]pyridin-5-yl)cyclopentan-1-amine]	IC50 (human TLR8; TLR8 IC50, HEK-Blue cells overexpressing human TLR8, R848 15.9 μM stimulation, SEAP reporter): 8.2 nM; IC50 (human TLR9; TLR9 IC50, HEK-Blue cells overexpressing human TLR9, ODN2006 5 nM stimulation, SEAP reporter): 2250 nM
–	–	–	3.6	6.9	5440	–	–	–	CC(C)c1c(-c2cc(CO)c3ncnn3c2)[nH]c2ccc(N3CCC(NCC#N)CC3)nc12 [Example 83]	–
–	–	–	–	–	–	2.7	4.8	3050	COc1cc(-c2[nH]c3ccc(OCC4CN(CC(C)(C)O)C4)nc3c2C(C)C)cn2ncnc12 [Example 599]	–
–	–	–	–	–	–	0.98	1.9	1470	COc1cc(-c2[nH]c3ccc(C4CC(N(C)C)C4)nc3c2C(C)C)cn2ncnc12 (stereo not drawn) [Example 639]	–
–	–	–	2.7	14	1790	–	–	–	COc1cc(-c2[nH]c3ccc(C4CCC(N(C)CC(=O)N(C)C)CC4)nc3c2C(C)C)cn2ncnc12 (stereo not drawn) [Example 226]	–
–	–	–	–	–	–	7.1	9.6	7370	Cc1c(-c2[nH]c3ccc(C4CCC(NC5(C)COC5)CC4)nc3c2C(C)C)cn2ncnc2c1C (stereo not drawn) [Example 473]	–
–	–	–	2.2	1.2	6010	–	–	–	COCC(C)N1CCN(c2ccc3[nH]c(-c4cc(OC)c5ncnn5c4)c(C(C)C)c3n2)CC1 (stereo not drawn) [Example 112]	–
–	–	–	–	–	–	2.6	1.7	8470	Cc1c(-c2[nH]c3ccc(C4CCC(N(CCO)CCS(C)(=O)=O)CC4)nc3c2C(C)C)cn2ncnc2c1C (stereo not drawn) [Example 461]	–
–	–	–	0.57	4.2	5000	–	–	–	COc1cc(-c2[nH]c3ccc(N4CCN(C(=O)CN(C)C)CC4)nc3c2C(C)C)cn2ncnc12 [Example 90]	–
–	–	–	–	–	–	26	252	> 50000	COc1cc(-c2[nH]c3cc(C)c(C(=O)N(C)CCC(F)(F)F)nc3c2C(C)C)cn2ncnc12 [Example 734]	–
–	–	–	–	–	–	0.32	5.1	1550	COc1cc(-c2[nH]c3cc(F)c(C4CCN(CC(=O)N(C)C)CC4)nc3c2C(C)C)cn2ncnc12 [Example 583]	–
–	–	–	–	–	–	6.3	16	9550	Cc1c(-c2[nH]c3ccc(C4CCC(N(C)CC(N)=O)CC4)nc3c2C(C)C)cn2ncnc2c1C (stereo not drawn) [Example 501]	–
–	–	–	–	–	–	6.2	10	3280	Cc1c(-c2[nH]c3ccc(C4CNC4)nc3c2C(C)C)cn2ncnc2c1C [Example 649, 6-(5-(azetidin-3-yl)-3-isopropyl-1H-pyrrolo[3,2-b]pyridin-2-yl)-7,8-dimethyl-[1,2,4]triazolo[1,5-a]pyridine]	–
–	–	–	–	–	–	6.4	9.6	4920	Cc1c(-c2[nH]c3ccc(C4CN(CC(C)(C)O)C4)nc3c2C(C)C)cn2ncnc2c1C [Example 654]	–
–	–	–	0.39	4.1	1780	–	–	–	COc1cc(-c2[nH]c3cc(C)c(C4CCC(NC5(C)COC5)CC4)nc3c2C(C)C)cn2ncnc12 (stereo not drawn) [Example 310]	–
–	–	–	28	114	6450	–	–	–	Cc1cc(-c2[nH]c3ccc(C4CCC(N5CC6(COC6)C5)CC4)nc3c2C(C)C)cn2ncnc12 (stereo not drawn) [Example 288]	–
–	–	–	–	–	–	16	11	4660	COCCNC1CCC(c2ccc3[nH]c(-c4cn5ncnc5c(C)c4C)c(C(C)C)c3n2)CC1 (stereo not drawn) [Example 431]	–
–	–	–	3.3	6.6	1480	–	–	–	Cc1c(-c2[nH]c3ccc(C4CCC(NC(C)C)CC4)nc3c2C(C)C)cn2ncnc2c1C (stereo not drawn) [Example 363]	–
1.3	1.3	6690	–	–	–	–	–	–	Cc1c(-c2[nH]c3ccc(N4[C@@H](C)CNC[C@@H]4C)nc3c2C(C)C)cn2ncnc2c1C [Example 821]	–
